The record followed here is US12453358B2, “Theanine-producing strain and use thereof in tea fermentation production” (GUANGZHOU ZHONGZHUANG BEAUTY COSMETICS CO., LTD, priority 2024, dated 2025).

The test system of assay [1] is MMP-1. The assay is described as follows: Anti-wrinkle index test: MMP-1 content in supernatant of UVA-stimulated fibroblasts (ELISA). In kind it is cell-based, human. Particulars: UVA 7 J/cm^2, samples 24 h, black tea fermentation liquor 6%, VC 80 µg/ml, GSH 20 m/ml. Here is the method:
(§1) Test of anti-wrinkle index of fibroblasts: fibroblasts were set with a blank control group, a model group, a positive control group and a sample group. The number of cells per well was controlled to be 5×10^5. After incubation at 37° C. for 24 h in a 5% CO2 incubator, the medium was removed and a small amount of PBS (pH of 7.4) was added to just cover the cells. The cells were stimulated with UVA at the UV radiation dose of 7 J/cm^2, and the blank control group was not radiated. PBS was discarded, samples with different concentrations were added, with the addition concentration of the black tea fermentation liquor being 6%, VC being 80 µg/ml, and GSH being 20 m/ml; and the cells were stimulated for 24 h. The cell culture supernatants were centrifuged for 15 min at 4° C. and 1000 g, and the supernatants were tested for MMP-1 content using human matrix metalloproteinase-1 (MMP-1) ELISA Kit. The cell suspension was diluted with PBS (pH of 7.2-7.4) to obtain a cell concentration of 1×10^6 cells/mL, and the cells were ruptured after repeated freeze-thaw treatment. The cells were centrifuged at 1000 g for 20 min to obtain the supernatant, which was used to test the CoLI content using a type I collagen (CoLI) test box, and test the HA content using human hyaluronic acid (HA) ELISA Kit. All operations were conducted in accordance with the kit instructions.
(In an ELISA, binding on a coated surface is turned into a signal by an enzyme label.)

In assay [2] the test system is hyaluronic acid (HA). Nature of the assay: Anti-wrinkle index test: HA content in UVA-stimulated fibroblasts (ELISA). In kind it is cell-based, human. The following applies: UVA 7 J/cm^2, samples 24 h, black tea fermentation liquor 6%, VC 80 µg/ml, GSH 20 m/ml. Here is the method:
as §1

Assay [3] deals with type I collagen (CoLI). Nature of the assay: Anti-wrinkle index test: CoL I content in UVA-stimulated fibroblasts (type I collagen test box). In kind it is cell-based. Particulars: UVA 7 J/cm^2, samples 24 h, black tea fermentation liquor 6%, VC 80 µg/ml, GSH 20 m/ml. Here is the method:
as §1

Assay [4] concerns theanine synthesis system. The assay is described as follows: High throughput screening of alanine decarboxylase CsAlaDC mutant enzyme in theanine synthesis system. In kind it is biochemical, Escherichia coli. Here is the method:
First, a BL21-GMAS-CsAlaDC recombinant single colony was selected and loaded onto a 96-well plate, added into a 800 μL LB medium, and cultured at 37° C. and 900 r/min for 6 h; thereafter, IPTG (isopropyl-3-D-thiogalactoside) at a final concentration of 0.1 mM was added, and cultured at 24° C. for 16 h. Into the 96-well plate, 0.1 mL glycerol, 200 μL potassium glutamate of 50 mM, 200 μL alanine of 50 mM, 50 μL ATP of 10 mM, 80 μL MgCl2 of 5 mM, 85 μL DTT of 10 mM, and 85 μL Tris-HCl of 100 mM (pH 7.5) were sequentially added, to form a theanine synthesis system. The synthesis reaction was conducted for 24 h in a 30° C. water bath and repeated three times. […]
Color developing solution: 1.0 g/L soluble starch was weighed, mixed with distilled water, and boiling distilled water was added. […] After cooling, insoluble substances were filtered through a quantitative filter paper, and 1.0 g sodium hydroxide was added. […]
10 mL EP tubes were taken, 1 mL theanine sample and 4 mL sodium bicarbonate solution were added to one tube, and 5 mL sodium bicarbonate solution was added to the other tube, mixed and then stood for 5 min. […] Immediately after being mixed well, their absorbance values were respectively measured at the wavelength of 570 nm on the spectrophotometer by using distilled water as reference and with a cuvette. A high absorbance at 570 nm indicates a high theanine content. […]

Molecule `O=C1O[C@H]([C@@H](O)CO)C(O)=C1O` [VC] gave an MMP-1 content in assay [1] of 20.42. The HA content in assay [2] was 4.38. Moreover, the “CoL I content” value in assay [3] was found to be 2.45.
The matching figures for `N[C@@H](CCC(=O)N[C@@H](CS)C(=O)NCC(=O)O)C(=O)O` [GSH]: 21.17, 5.45 and 6.89.

B1: CsAlaDC-I177Y (protein)
chain: MEGTVSVLSNVSKVELLSKCFDLITIPVEPLPPVVASNGVAGGETKKMKEKDIVLGKNVHTTSLTITEPDVDDDSTSDMEAFMAGVLVRYRKTLIEKTKYHLGYPFNLDLDYGPLAELQHFAINNLGDPFIESNYGVHSRQFEVGVLDWFARLWEIEQKEYWGYITNGGTEGNLHGYLVGREVFPDGIFYTSRESHYSIFKAARMYRMECVKVGTLINGEIDCADFKAKLLSNKDKPAIINLNIGTTVKGAVDDIDLVIQTLEECGFSHDRFYIHCDGALFGFMMPFLNRGPKITFKKPIGSVSVSGHKFMGCPTPCGVQITRLEHINALSRNVEYLASRDATITGSRNGHSPIILWYALNRKGFKGFQKEVQKCLRNAHYLKDRLREAGISAMLNELSSTVVFERPLDEEFVRRWQLACEGNMAHVIVMPNVTIEKLDEFLNELVQKRANWYNDGKAGPPCLAPDIGSENCDCDLHK
Consider B1, for which the “content of theanine catalyzed by the enzyme” value in assay [4] (BL21-GMAS-CsAlaDC recombinant, glutamate + alanine + ATP, no ethylamine, 30° C., 24 h) worked out at 93.6 µM. Besides, the “theanine content higher than that of original enzyme CsAlaDC” value in assay [4] (compared with original enzyme CsAlaDC) worked out at 85%.
